Results as given in publication PMC3914206.

Assays:
Type in all cases: binding
Settings in all cases: Compound Concentration 10 µM
panel of 442 kinases [1] = target: T1, panel of 442 kinases (Homo sapiens, UniProt O94806)
T1 construct: purchased KINOMEscan
T1 sequence (O94806 1-890): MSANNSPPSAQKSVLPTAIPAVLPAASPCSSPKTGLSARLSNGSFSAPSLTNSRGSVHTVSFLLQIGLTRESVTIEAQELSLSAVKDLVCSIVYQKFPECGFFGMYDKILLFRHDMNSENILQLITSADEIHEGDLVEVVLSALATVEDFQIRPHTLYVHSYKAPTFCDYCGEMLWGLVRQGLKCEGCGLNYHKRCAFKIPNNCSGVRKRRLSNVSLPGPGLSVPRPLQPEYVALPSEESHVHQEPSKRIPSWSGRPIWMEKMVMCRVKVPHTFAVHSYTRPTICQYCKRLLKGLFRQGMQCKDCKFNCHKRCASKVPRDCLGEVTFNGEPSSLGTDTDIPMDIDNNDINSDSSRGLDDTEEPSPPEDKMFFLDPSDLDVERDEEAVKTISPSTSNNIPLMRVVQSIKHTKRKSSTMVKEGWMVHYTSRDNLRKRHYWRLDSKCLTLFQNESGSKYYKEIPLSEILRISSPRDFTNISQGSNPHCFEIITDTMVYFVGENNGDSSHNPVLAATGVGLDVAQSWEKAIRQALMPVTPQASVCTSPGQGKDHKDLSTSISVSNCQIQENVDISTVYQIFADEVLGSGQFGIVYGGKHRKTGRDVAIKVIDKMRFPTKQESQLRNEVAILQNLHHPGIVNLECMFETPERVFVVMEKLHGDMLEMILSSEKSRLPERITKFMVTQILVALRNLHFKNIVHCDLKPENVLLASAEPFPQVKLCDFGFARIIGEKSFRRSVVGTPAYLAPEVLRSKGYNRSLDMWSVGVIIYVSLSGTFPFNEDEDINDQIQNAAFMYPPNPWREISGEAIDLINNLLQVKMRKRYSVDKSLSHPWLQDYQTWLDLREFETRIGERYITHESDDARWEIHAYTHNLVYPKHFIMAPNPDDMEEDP
Source text: (§1) We assessed the selectivity of members of this scaffold using the KINOMEscan methodology across a near comprehensive panel of 442 kinases [[18,27]].

panel of 442 kinases [2] = target: T2, panel of 442 kinases (Homo sapiens, UniProt P00533, L858R)
T2 construct: purchased KINOMEscan
T2 sequence (P00533 25-1210 L858R): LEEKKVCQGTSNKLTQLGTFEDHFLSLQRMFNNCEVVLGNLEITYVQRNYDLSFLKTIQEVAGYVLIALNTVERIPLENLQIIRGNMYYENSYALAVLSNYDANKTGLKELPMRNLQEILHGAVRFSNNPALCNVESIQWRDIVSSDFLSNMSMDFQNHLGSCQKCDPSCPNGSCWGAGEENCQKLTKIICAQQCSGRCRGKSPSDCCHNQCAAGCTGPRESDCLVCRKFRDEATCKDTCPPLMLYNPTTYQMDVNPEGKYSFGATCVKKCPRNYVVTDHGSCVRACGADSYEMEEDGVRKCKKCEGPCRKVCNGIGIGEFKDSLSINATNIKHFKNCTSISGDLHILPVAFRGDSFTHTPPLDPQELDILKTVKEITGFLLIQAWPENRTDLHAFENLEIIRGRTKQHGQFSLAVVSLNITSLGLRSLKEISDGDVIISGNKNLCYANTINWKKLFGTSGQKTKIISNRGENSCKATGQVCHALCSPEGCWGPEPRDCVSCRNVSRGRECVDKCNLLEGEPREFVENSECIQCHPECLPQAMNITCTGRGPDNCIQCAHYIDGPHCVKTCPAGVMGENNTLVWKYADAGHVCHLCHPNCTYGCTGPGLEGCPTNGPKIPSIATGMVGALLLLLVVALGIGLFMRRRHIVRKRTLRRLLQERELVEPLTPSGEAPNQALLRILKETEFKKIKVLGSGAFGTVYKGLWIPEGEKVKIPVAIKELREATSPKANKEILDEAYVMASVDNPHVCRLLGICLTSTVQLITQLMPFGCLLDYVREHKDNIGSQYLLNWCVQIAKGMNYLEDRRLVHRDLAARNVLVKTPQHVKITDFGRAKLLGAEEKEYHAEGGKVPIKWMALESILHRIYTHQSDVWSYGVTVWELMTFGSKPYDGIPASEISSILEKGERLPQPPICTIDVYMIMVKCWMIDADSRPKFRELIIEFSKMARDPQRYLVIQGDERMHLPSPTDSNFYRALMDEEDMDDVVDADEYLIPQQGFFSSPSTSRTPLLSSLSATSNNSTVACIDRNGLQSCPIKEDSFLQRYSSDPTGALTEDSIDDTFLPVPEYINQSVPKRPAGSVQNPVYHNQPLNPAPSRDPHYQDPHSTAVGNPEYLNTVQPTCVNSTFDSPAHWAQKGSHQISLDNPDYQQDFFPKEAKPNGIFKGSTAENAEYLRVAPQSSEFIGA
Source text: as §1

panel of 442 kinases [3] = target: T3, panel of 442 kinases (Homo sapiens, UniProt P42336, C420R)
T3 construct: purchased KINOMEscan
T3 sequence (P42336 whole entry C420R): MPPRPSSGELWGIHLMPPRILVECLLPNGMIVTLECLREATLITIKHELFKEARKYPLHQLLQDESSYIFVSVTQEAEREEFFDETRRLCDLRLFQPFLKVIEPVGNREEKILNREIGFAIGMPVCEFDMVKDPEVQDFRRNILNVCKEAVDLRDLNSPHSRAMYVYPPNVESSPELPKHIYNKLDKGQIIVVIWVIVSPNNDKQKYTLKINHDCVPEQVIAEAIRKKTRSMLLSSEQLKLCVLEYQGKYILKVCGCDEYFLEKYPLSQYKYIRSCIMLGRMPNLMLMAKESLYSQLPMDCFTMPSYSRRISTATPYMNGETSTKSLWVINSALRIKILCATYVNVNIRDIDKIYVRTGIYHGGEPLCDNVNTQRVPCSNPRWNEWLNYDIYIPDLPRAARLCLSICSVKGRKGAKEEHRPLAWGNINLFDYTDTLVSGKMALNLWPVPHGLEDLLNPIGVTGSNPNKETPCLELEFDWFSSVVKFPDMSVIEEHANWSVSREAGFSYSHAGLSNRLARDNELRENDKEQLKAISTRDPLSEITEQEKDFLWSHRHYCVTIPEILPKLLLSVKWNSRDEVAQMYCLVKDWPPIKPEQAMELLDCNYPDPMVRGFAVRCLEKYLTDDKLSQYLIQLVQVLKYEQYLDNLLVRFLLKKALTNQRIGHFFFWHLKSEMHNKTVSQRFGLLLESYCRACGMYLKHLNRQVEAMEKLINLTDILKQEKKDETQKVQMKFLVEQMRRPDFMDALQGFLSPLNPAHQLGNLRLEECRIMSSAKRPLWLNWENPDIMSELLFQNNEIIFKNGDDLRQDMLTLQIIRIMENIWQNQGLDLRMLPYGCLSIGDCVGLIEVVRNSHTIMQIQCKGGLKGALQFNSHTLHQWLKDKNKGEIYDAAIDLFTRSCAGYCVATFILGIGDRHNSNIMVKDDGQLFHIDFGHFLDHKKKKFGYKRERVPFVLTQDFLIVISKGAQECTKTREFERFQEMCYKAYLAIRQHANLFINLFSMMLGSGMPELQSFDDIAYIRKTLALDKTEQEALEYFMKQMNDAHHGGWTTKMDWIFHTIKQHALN
Source text: as §1

Compound | KINOMEscan: PRKD3 (panel of 442 kinases [1]) | KINOMEscan: EGFR(L858R) (panel of 442 kinases [2]) | KINOMEscan: PIK3CA(C420R) (panel of 442 kinases [3])
COc1cc(C(=O)N2CCC(N3CCN(C)CC3)CC2)ccc1Nc1ncc2c(n1)N(C)c1ccccc1C(=O)N2C [15 (LRRK2-IN-1)] | 42 | 79 | 89
CCOc1cc(C(=O)N2CCC(N3CCN(C)CC3)CC2)ccc1Nc1ncc2c(n1)N(C1CCCC1)c1ccccc1C(=O)N2C [Compound 26] | 100 | 100 | 99
COc1cc(C(=O)N2CCC(N3CCN(C)CC3)CC2)ccc1Nc1ncc2c(n1)N1CCc3cccc(c31)C(=O)N2C [Compound 24] | 19 | 62 | –
COc1cc(C(=O)N2CCC(N3CCN(C)CC3)CC2)ccc1Nc1ncc2c(n1)N(C1CCCC1)c1ccccc1C(=O)N2C [Compound 25, 11-cyclopentyl-2-((2-methoxy-4-(4-(4-methylpiperazin-1-yl)piperidine-1-carbonyl)phenyl)amino)-5-methyl-5H-benzo[e]pyrimido[5,4-b][1,4]diazepin-6(11H)-one] | 100 | 83 | 100
